These results are taken from patent publication US20060233705A1, “Diagnosis by determination of hyperactivity or increased expression of members of cell signaling pathways” (priority 2005, published 2006).

Series [1] concerns members of the MAPK and GPCR pathways. In words: ELISA of venous blood for MAPK and GPCR pathway members in NNK-treated hamsters. It is filed as in vivo, Syrian Golden Hamsters. Conditions: blood one week after NNK 2.5 mg/100 g s.c. three times weekly for 10 weeks. The method, then: Syrian Golden Hamsters are injected subcutaneously with the tobacco-specific carcinogenic nitrosamine 4-(methylnitrosamino)-1-(3-pyridyl)-1-butanone (NNK) at a dosage of 2.5 mg/100 g bodyweight three times weekly for 10 weeks. […] Control hamsters are untreated. One week after the final NNK injection, approximately 250 microliters of venous blood is collected from the hamsters.
Antibodies that bind to phosphorylated or unphosphorylated members of the MAPK and GPCR pathways, including Raf, Ras, MEK, ERK, adenylate cyclase, cAMP, PKA, CREB, and PKC are purchased from commercial sources, including EMD Biosciences (San Diego, Calif.) (Raf, ERK), BD Biosciences Pharmingen (San Diego, Calif.) (Raf), Cell Signaling Technology (Beverly, Mass.) (Ras), Abgent (San Diego, Calif.) ([…]), GenWay Biotech Inc. (San Diego, Calif.) (adenylate cyclase), Abcam, Inc. (Cambridge, Mass.) (cAMP, PKA, PKC, Raf), and Upstate (Charlottesville, Va.) (CREB).
Paired antibodies for each of the above member of the MAPK and GPCR pathways are utilized as coating antibody and detection antibody in formulating an ELISA (Enzyme-Linked Immunosorbent Assay) for each of the members. […]
Briefly, a first antibody that binds to a member of the MAPK or GPCR pathway is bound to the wells on a microtiter plate. […] Then a stop solution is added to the wells and the color intensity of each well is measured using an ELISA plate reader.

Series [2] relates to human pulmonary adenocarcinoma cells. Conditions: in vitro; by increasing the release of arachidonic acid; cited from earlier work.
For series [3], the system named is pulmonary adenocarcinomas. Conditions: animal model; cited from earlier work.
Series [4] has as its system lung tumors. Conditions: 2.5 mg/100 g s.c. three times weekly for 20 weeks; within 52 weeks after start of injections; cited from earlier work.

Regarding `CN(CCCC(=O)c1cccnc1)N=O` [NNK, 4-(methylnitrosamino)-1-(3-pyridyl)-1-butanone], the “ELISA color intensity versus control hamsters” value in series [1] is “significantly higher”. In addition, in series [2], the “proliferation of human pulmonary adenocarcinoma cells” value is “stimulate the proliferation”. The “induction of pulmonary adenocarcinomas” value in series [3] was “reproducibly induced pulmonary adenocarcinomas”. For the same molecule, the lung tumors developed result in series [4] is recorded as “about 10 lung tumors/hamster”.
With `CC(C)NCC(O)c1ccc(O)c(O)c1` (centres unmarked) [isoproterenol], the “proliferation of human pulmonary adenocarcinoma cells” value in series [2] is on record as “stimulate the proliferation”.
